Reference: PMC3368261, “Substituted aminopyrimidine protein kinase B (PknB) inhibitors show activity against Mycobacterium tuberculosis” (Bioorganic & Medicinal Chemistry Letters, 2012)
Converted amounts (≈) assume the structure as drawn. Read-outs that look alike come from different tables or passages of the source.

Columns and labels:
PknB = PknB (Mycobacterium tuberculosis, UniProt P9WI81); test: PknB enzyme inhibition, in vitro phosphorylation of the substrate GarA; type: biochemical
M. tuberculosis = test: Alamar blue cellular assay against M. tuberculosis (MIC); type: cell-based; details: Mycobacterium tuberculosis
[1] = tested on: 76-member human kinase panel; type: biochemical; details: 10 μM inhibitor concentration, 76 kinases
physchem = type: physicochemical
[2] = assay conditions described in Ref. [8] (Table 5: Ref. [10]), read-out: PknB IC50

Sequence of PknB (P9WI81 whole entry): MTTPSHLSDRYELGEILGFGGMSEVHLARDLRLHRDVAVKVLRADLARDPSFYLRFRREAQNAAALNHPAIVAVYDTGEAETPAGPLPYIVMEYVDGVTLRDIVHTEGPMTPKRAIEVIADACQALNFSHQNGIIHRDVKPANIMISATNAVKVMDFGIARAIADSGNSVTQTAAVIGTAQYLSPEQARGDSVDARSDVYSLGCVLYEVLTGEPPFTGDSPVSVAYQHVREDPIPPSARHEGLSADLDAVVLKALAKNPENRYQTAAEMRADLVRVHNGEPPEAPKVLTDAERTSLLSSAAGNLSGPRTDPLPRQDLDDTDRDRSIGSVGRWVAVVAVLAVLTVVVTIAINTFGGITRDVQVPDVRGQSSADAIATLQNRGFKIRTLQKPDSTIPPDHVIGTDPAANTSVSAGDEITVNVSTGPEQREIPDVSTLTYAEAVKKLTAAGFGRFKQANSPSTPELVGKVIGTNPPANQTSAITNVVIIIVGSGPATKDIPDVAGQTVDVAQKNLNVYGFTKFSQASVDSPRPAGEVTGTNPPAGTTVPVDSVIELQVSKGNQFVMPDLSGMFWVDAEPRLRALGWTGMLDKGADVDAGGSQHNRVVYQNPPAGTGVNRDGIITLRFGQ

SMILES | IC50 (PknB; [2]) [nM] | MIC (M. tuberculosis) [µM] | other results
CN(C)[C@@H]1CCN(c2cc(Nc3cc(C4CC4)[nH]n3)nc(-c3cccc(C#N)c3)n2)C1 [Compound 15a] | 56 | 63 (≈ 26.1 µg/mL) | 
Fc1ccc(-c2nc(Nc3cc[nH]n3)c3ccccc3n2)cc1 [Compound 5b] | 453 |  | 
c1cc(Nc2cc(C3CC3)[nH]n2)nc(NC2CCCC2)n1 [Compound 8n] | 115 | 63 (≈ 17.9 µg/mL) | 
COc1ccnc(Nc2cc(N3CC[C@@H](N(C)C)C3)nc(-c3ccccc3)n2)c1 [Compound 16b] | 1130 | 31 (≈ 12.1 µg/mL) | 
CN1CCC(CNc2cc(Nc3cc(C4CC4)[nH]n3)nc(-c3cccc(C#N)c3)n2)CC1 [Compound 15c] | 23 | 31 (≈ 13.3 µg/mL) | gain in PknB enzyme affinity (PknB): approximately twofold
CN(C)CCNc1cc(Nc2cc(C3CC3)[nH]n2)nc(-c2cccc(C#N)c2)n1 [Compound 15b] | 39 | 63 (≈ 24.5 µg/mL) | gain in PknB enzyme affinity (PknB): approximately twofold
CS(=O)(=O)NCc1ccc(-c2nccc(Nc3cc(C4CC4)[nH]n3)n2)cc1 [Compound 8e] | 241 | 63 (≈ 24.2 µg/mL) | 
Fc1ccc(-c2nc(Nc3cc(C4CC4)[nH]n3)c3ccccc3n2)cc1 [Compound 5d] | 223 |  | 
CS(=O)(=O)Nc1cccc(-c2nccc(Nc3cc(C4CC4)[nH]n3)n2)c1 [Compound 8c] | 393 | 31 (≈ 11.5 µg/mL) | 
Fc1cccc(CCNc2nccc(Nc3cc(C4CC4)[nH]n3)n2)c1 [Compound 8k] |  | 63 (≈ 21.3 µg/mL) | IC50 (PknB; read-out: PknB IC50): 74 nM
CN(C)[C@@H]1CCN(c2cc(Nc3cc(Cl)ccn3)nc(-c3ccccc3)n2)C1 [Compound 16c] | 176 | 8 (≈ 3.16 µg/mL) | kinase selectivity against human kinase panel [1]: improvement in selectivity relative to 11e
CN1CCC(Nc2cc(Nc3cc(C4CC4)[nH]n3)nc(-c3ccccc3)n2)CC1 [Compound 11d] | 73 | 31 (≈ 12.1 µg/mL) | logD (physchem): 2.3
NC(=O)c1cccc(-c2nccc(Nc3cc(C4CC4)[nH]n3)n2)c1 [Compound 8b] | 384 | 63 (≈ 20.2 µg/mL) | 
Cc1cc(Nc2nc(-c3ccc(F)cc3)nc3ccccc23)n[nH]1 [Compound 5c] | 1160 |  | 
CN1CCN(c2cc(Nc3cc(C4CC4)[nH]n3)nc(-c3ccccc3)n2)CC1 [Compound 11b] | 121 | 63 (≈ 23.7 µg/mL) | logD (physchem): 3.6
c1ccc2c(Nc3cc(C4CC4)[nH]n3)nc(NCC3CC3)nc2c1 [Compound 5g] | 428 |  | 
Fc1ccc(-c2nccc(Nc3cc(C4CC4)[nH]n3)n2)cc1 [Compound 8a] | 375 | > 500 | 
c1ccc(-c2nc(Nc3cc(C4CC4)[nH]n3)c3ccccc3n2)cc1 [Compound 5e] | 440 |  | 

SMILES | IC50 (PknB; [2]) [nM] | MIC (M. tuberculosis) [µM] | other results
CN(C)[C@@H]1CCN(c2cc(Nc3cc(C(F)(F)F)ccn3)nc(-c3cccc(C#N)c3)n2)C1 [Compound 16d] |  | 16 (≈ 7.26 µg/mL) | IC50 (PknB; read-out: PknB IC50): 40 nM
c1ccc2c(Nc3cc(C4CC4)[nH]n3)nc(NC3CCCCC3)nc2c1 [Compound 5f] |  |  | IC50 (PknB; read-out: PknB IC50): 107 nM
Cc1cc(Nc2nc(-c3ccncc3)nc3ccccc23)n[nH]1 [Compound 1] |  |  | IC50 (PknB; high throughput screen, GarA phosphorylation, read-out: PknB inhibition (HTS hit)): 1350 nM
c1ccc(CNc2nccc(Nc3cc(C4CC4)[nH]n3)n2)cc1 [Compound 8j] | 715 | 125 (≈ 38.3 µg/mL) | 
CN(C)CCNc1cc(Nc2cc(C3CC3)[nH]n2)nc(-c2ccccc2)n1 [Compound 11a] | 88 | 125 (≈ 45.4 µg/mL) | logD (physchem): 3.7
CN(C)[C@@H]1CCN(c2cc(Nc3ccccn3)nc(-c3cccc(C#N)c3)n2)C1 [Compound 16a] | 1990 | 31 (≈ 11.9 µg/mL) | 
c1ccc(-c2nc(Nc3cc(C4CC4)[nH]n3)cc(OCCN3CCCC3)n2)cc1 [Compound 11f] | 56 | 31 (≈ 12.1 µg/mL) | logD (physchem): 3.4
Clc1ccccc1CCNc1nccc(Nc2cc(C3CC3)[nH]n2)n1 [Compound 8l] | 64 | 125 (≈ 44.4 µg/mL) | 
c1ccc2c(Nc3cc(C4CC4)[nH]n3)nc(-c3ccncc3)nc2c1 [Compound 5a] |  |  | improvement in PknB binding affinity (PknB): fourfold improvement in binding affinity; IC50 (PknB; read-out: PknB IC50): 322 nM
c1cc(Nc2cc(C3CC3)[nH]n2)nc(NC2CCCCC2)n1 [Compound 8h] | 84 | 63 (≈ 18.8 µg/mL) | 
CN(C)[C@@H]1CCN(c2cc(Nc3cc(C4CC4)[nH]n3)nc(-c3ccccc3)n2)C1 [Compound 11e] | 53 | 16 (≈ 6.23 µg/mL) | logD (physchem): 3.8
c1cc(Nc2cc(C3CC3)[nH]n2)nc(NCC2CC2)n1 [Compound 8m] |  | 250 (≈ 67.6 µg/mL) | IC50 (PknB; read-out: PknB IC50): 217 nM
CN1CCC(CNc2cc(Nc3cc(C4CC4)[nH]n3)nc(-c3cccc(S(C)(=O)=O)c3)n2)CC1 [Compound 15d] |  | 63 (≈ 30.3 µg/mL) | IC50 (PknB; read-out: PknB IC50): 40 nM
c1cncc(-c2nccc(Nc3cc(C4CC4)[nH]n3)n2)c1 [Compound 8g] | 202 | 125 (≈ 34.8 µg/mL) | 
CC(C)CCNc1nccc(Nc2cc(C3CC3)[nH]n2)n1 [Compound 8i] | 354 | 63 (≈ 18 µg/mL) | 
CS(=O)(=O)c1cccc(-c2nccc(Nc3cc(C4CC4)[nH]n3)n2)c1 [Compound 8d] | 86 | 63 (≈ 22.4 µg/mL) | 
CN1CCC(CNc2cc(Nc3cc(C4CC4)[nH]n3)nc(-c3ccccc3)n2)CC1 [Compound 11c] |  | 31 (≈ 12.5 µg/mL) | IC50 (PknB; read-out: PknB IC50): 55 nM; logD (physchem): 2.3
N#Cc1cccc(-c2nccc(Nc3cc(C4CC4)[nH]n3)n2)c1 [Compound 8f] |  | 125 (≈ 37.8 µg/mL) | IC50 (PknB; read-out: PknB IC50): 87 nM
